Reference: EP2924037A1, “QUINAZOLINE DERIVATE AND USE THEREOF AS APOPTOSIS INHIBITOR” (Linx Pharmaceutical Co., Ltd., priority 2012, dated 2013)

What was measured:
HS>rpr Drosophila = assay: Compound screen in the apoptotic HS>rpr Drosophila model; format: in vivo; details: heat shock at 37 °C; 25 compounds screened
Protocol: HS-Gal4 (a promoter that can be expressed in whole body and activated by heat), can promote expression of any genes having repeated UAS (upstream activating sequence) at the 5' region. The HS-Gal4 and UAS-Reaper Drosophila were crossed at 18 °C to produce hybrids referred to as HS> rpr, and the female offspring underwent normal development. However, with heat shock for 2-3 hours at 37 °C, about 50-70% of the offspring died after 14-24 h (Fig. 1). 25 compounds were selected (Fig. 2) to determine their impact on the lethal rate of HS> rpr.
UAS-rpr and HS-Gal4 flies were obtained from Bloomington Stock Center in the US. The F1 progenies (HS>rpr) from the cross of these two lines were raised at 18 °C for the compound screen. Compounds were dissolved in 5% sucrose at the concentrations used in the culture media for Cmap. The compound solution (150 µL) was added to a vial containing three layers of filter papers. Twenty adult HS>rpr flies aged 1-3 days were then placed into each vial for 24 hours. The flies were heat shocked at 37 °C for 2 hrs. The survival rate was calculated 12 hrs after the heat shock.

[1] = system: RAW264.7 macrophage cells; assay: LPS and IFNγ induced apoptosis, Annexin V staining; format: cell-based; details: Mus musculus, LPS (2 µg/ml) and IFNγ (50 U/ml), read-out: reduction of apoptosis
Protocol: Cells were stained with Annexin V to examine apoptosis (Fig. 4). […] Terazosin (4 µg/ml) can reduced 50% of apoptosis (Fig. 4).
The RAW 264.7 cells were cultured in the DMEM medium (Gibco) supplemented with 10% FBS (Gibco), streptomycin (0.1 g/L) and penicillin (0.06 g/L) (Amresco). To induce apoptosis, RAW 264.7 cells at 90% confluence were incubated in DMEM (10% FBS) containing 2 µg/mL lipopolysaccharide (LPS; Escherichia coli O111:B4, Sigma) for 24 hours.
(§1) RAW 264.7 cells were cultured in the DMEM medium (Gibco) supplemented with 5% FBS, streptomycin (0.1 mg/mL) and penicillin (0.06 mg/mL). To induce apoptosis, 2 µg/mL lipopolysaccharide (LPS; Escherichia coli O111:B4, Sigma-Aldrich) and IFN-γ (50 U/mL, Peprotech) were added, and a predetermined concentration of the testing compound was added at the same time. Cell death was assessed by Western blot with an anti-active Caspase 3 antibody (#9661, Cell Signaling). β-Actin (Boster) was used as internal control for protein loading. The ratio of Caspase 3/β-Actinwas was used to assess apoptosis.

[2] = system: E. coli induced sepsis model; assay: E. coli induced sepsis model in mice; format: in vivo, BALB/C mice; details: 0.4 mg/kg, 1.5 hours following injection of E. coli
Protocol: Terazosin was tested in a model of septicemia caused by E. coli injected. […] To determine the potential antibacterial effect, the growth of E. coli was examined in the presence of terazosin.

E. Coli O111:B4 = assay: Oxford Cup test of antibiotic activity; format: cell-based; details: after 24 hrs; terazosin 0.2µg, 2µg, 200µg, 2mg; ampicillin 2mg
Protocol: The antibiotic activity of terazosin was measured by Oxford Cup test. Oxford Cups containing different concentrations of terazosin were placed in the petri dish wherein E. Coli O111:B4 was cultured on LB medium. The effects of terazosin and ampicillin on the growth of E. Coli were examined after 24 hrs.

CLP model of sepsis = format: in vivo, BALB/C mice
Protocol: (§2) Because E. coli and LPS models can only simulate Gram-negative bacteria infections, terazosin was further tested in a cecal ligation and puncture (CLP) model, which is believed to be the classic standard model of experimental septicemia (Parker and Watkins, 2001; Wichterman et al., 1980). First, 0.4 mg/kg of terazosin (same concentration as used in the LPS model) was tested. […] This may be due to severe cardiac dysfunction and hypotension induced by CLP. Thus, the blood pressure lowering function of the drug may have masked its anti-apoptotic effect. […] In addition, the combination of terazosin and antibiotics was tested. Terazosin was combined with amoxicillin and clavulanate potassium (Co-Am, amoxicillin and clavulanate potassium in a weight ratio of 4: 1, by way of a specific example elsewhere or instance mentioned in the present invention, also means a 4 : 1 ratio. Skilled in the art can understand, when a combination of amoxicillin and clavulanate potassium is referred to, the weight ratio of amoxicillin and clavulanate potassium can be from 1:1 to 10:1, especially 1:1-7:1, for example, about 1:1, about 4:1, about 7:1).
For the CLP model of sepsis, mice were anesthetized with chloral hydrate (300 mg/kg, i.p.). Then, a 1.5-2.0 cm long abdominal midline incision was made and the cecum was exposed. […]

[3] = Blood pressure of injected mice; format: in vivo; details: 0.08 mg/kg
Protocol: as §2

[4] = system: active form of caspase-3 in Raw 264.7 cells; assay: Western blot of the active form of caspase-3 in cells treated with LPS and IFNγ; format: cell-based
Protocol: CLP was done one week after the injection.
For Western blot, an anti-active Caspase 3 antibody (#9664, Cell Signaling) was used. The anti-actin antibody was purchased from Wuhan Boster company, China.
as §1

[5] = Effect on serum glucose in mice; format: in vivo; details: Mus musculus, ip, 18 h, read-out: reduction of the serum glucose level
Protocol: Mice were injected terazosin (0.4 mg/kg i.p.) once. The serum glucose level of the mice was measured 18 hours later. […] By the same method, exemplary compounds Co.1, Co.3, Co.7, Co.9, Co.13, Co.16, Co.19, Co.24, Co.27 and Co.32 as described in the present invention were all shown to be effective to reduce the serum glucose level by 20% to 50%.

[6] = system: sepsis models (LPS; Cecal Ligation and Puncture); assay: Effects against sepsis (LPS and CLP models), 7-day survival; format: in vivo, BALB/C mice; details: i.p. once a day for 3 days at 0.4 mg/kg; 7-day period; P < 0.05 compared to negative controls
Protocol: After 1.5 hours, compounds were injected (i.p.) at a predetermined concentration. Mouse survival was examined every 12 hours for 7 days. Statistical significance of the difference in the survival rates was analyzed.
Another model is Cecal Ligation and Puncture (CLP) model of sepsis. Mice were anesthetized. A 1.5-2.0 cm long abdominal midline incision was made and the cecum was exposed. After ligation 5 mm from the cecal tip, the cecum was punctured once with a 22-gauge needle, and some stool was squeezed out. Then the cecum was put back into the abdomen and the abdomen was closed by running suture. After 1.5 hours, compounds were injected (i.p.) at a predetermined concentration. Mouse survival was examined every 12 hours for 7 days. Statistical significance of the difference in the survival rates was analyzed.
These compounds were individually injected (i.p.) once a day for 3 days at 0.4 mg/kg.

Protocol for LPS-induced sepsis model: Male BALB/C mice (20±3g) from Vital River (Beijing, China) were housed in the Animal Center of Peking University. […] For the LPS model of sepsis, each mouse was injected with LPS (13.5 mg/kg, i.p.) once. […] Terazosin (0.4 mg/kg or 0.04 mg/kg) or saline was then injected (i.p.) 1.5 hours after LPS infusion. Lethality was recorded every 12 hours for 7 days.
24 hrs after LPS injection, one thymus from each mouse was collected. Then, the genomic DNA of thymus was extracted with a genomic DNA purification kit (Biofuture, Beijing, China). DNA fragmentation was assessed on a DNA agarose gel.

## COc1cc2nc(N3CCN(C(=O)C4CCCO4)CC3)nc(N)c2cc1OC (stereo not drawn) [Co.33, (4-(4-amino-6,7-dimethoxyquinazolin-2-yl)piperazin-1-yl)(tetrahydrofuran-2-yl)methanone]
HS>rpr Drosophila
  survival rate of HS>rpr Drosophila: significantly improve the survival rate
[1]
  inhibition at 4 µg/mL: 50%
[2]
  protection from E. coli-induced death: can protect mice from E. coli-induced death
E. Coli O111:B4
  growth of E. coli (inhibition zones): cannot inhibit the growth of E. coli
CLP model of sepsis; 0.08 mg/kg, injected at 1.5 hours and 24 hours after surgery
  survival of mice in the CLP model: significantly promoted the survival of mice
CLP model of sepsis; mouse, in vivo
  death of mice in the CLP model versus control: died faster than the control group
[3]
  blood pressure of the injected mice: completely normal
[4]
  active form of caspase-3: decreased
[5]
  inhibition in vivo at 0.4 mg/kg: 30%
[6]
  survival against sepsis: significantly increased survival against sepsis
LPS-induced sepsis model; injected at 12 hours after LPS treatment (0.04 mg/kg per Fig. 6)
  effect in later phases of septicemia (survival): satisfactory results
LPS-induced sepsis model; mice treated with LPS and terazosin vs LPS, 24 hrs after LPS injection
  DNA ladders in genomic DNA of the thymus: significantly reduced
